According to EP0103381B1, “Substituted anthra(1,9-cd)pyrazol-6(2H)-ones” (WARNER-LAMBERT COMPANY, priority 1982, dated 1984):
Where a name gives a salt, the structure may show the parent alone. Read-outs that look alike come from different tables or passages of the source.

Legend:
[1] = tested on: HCT-8 (human colon adenocarcinoma) cells; assay: in vitro activity against human colon adenocarcinoma (HCT-8), cell count; type: cell-based
Experimental: HCT-8 (human colon adenocarcinoma) cells are trypsinized using Trypsin-EDTA. A single cell suspension is achieved by passing the cells through a 26 gauge needle with a 20 cc syringe. A cell suspension is prepared using RPMI 1640 growth medium (available from Gibco Laboratories) +10% fetal calf serum +50 µg/ml garamycin with a cell concentration of approximately 30,000 cells/ml. The cell suspension is dispensed in Linbro 24-well plates; 1 ml/well. The plates are incubated for approximately 48 hrs at 37°C in a 5% C02 atmosphere. At this time test compounds are added in the appropriate concentration. Five µl of the 200 µg/ml stock solution is added to each well in a primary test. Ten pl of the appropriate dilution is added to each well for a titration test. The plates are reincubated an additional 60-65 hrs at 37°C in a 5% C02 atmosphere. The test is read by lysing the cells using a mix of cationic surfactant, glacial acetic acid and sodium chloride. […] of the lysed cell suspension from each well is added to 8 ml of diluent. Each sample is read with a Coulter counter (ZBI model). The activity of each sample is measured as a percentage of the controls and the data is reported as ID50, that is the molar quantity of drug required to kill 50% of the tumor cells.

Aerobacter aerogenes = assay: agar plate paper-disc inhibition zone screening; type: cell-based; conditions: Klebsiella aerogenes, read-out: Inhibition Zone Diameter mm (Dose mg/ml) A. Aerogenes; for zone of inhibition at 500 µg/mL: Dose 0.5 mg/ml; for zone of inhibition at 100 µg/mL: Dose 0.1 mg/ml
Outline: (§1)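 Read-out: diameter (mm) of the inhibition zone around 12.7 mm paper discs after overnight (18-20 h) incubation at 37°C. Discs carried compound at 3,000-10 mcg/ml in alcohol, DMSO or DMF, final solvent <10%. Seeded agar trays used saline-suspended cells adjusted to 20-35% transmittancy.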

Streptococcus faecalis = assay: agar plate paper-disc inhibition zone screening; type: cell-based; conditions: Enterococcus faecalis, read-out: Inhibition Zone Diameter mm (Dose mg/ml) S. Faecalis; for zone of inhibition at 500 µg/mL: Dose 0.5 mg/ml; for zone of inhibition at 1000 µg/mL: Dose 1.0 mg/ml; for zone of inhibition at 3000 µg/mL: Dose 3.0 mg/ml
Outline: as §1

Bacillus subtilis = assay: agar plate paper-disc inhibition zone screening; type: cell-based; conditions: read-out: Inhibition Zone Diameter mm (Dose mg/ml) B. Subtilis; for zone of inhibition at 100 µg/mL: Dose 0.1 mg/ml; for zone of inhibition at 1000 µg/mL: Dose 1.0 mg/ml; for zone of inhibition at 3000 µg/mL: Dose 3.0 mg/ml
Outline: as §1

Escherichia coli = assay: agar plate paper-disc inhibition zone screening; type: cell-based; conditions: read-out: Inhibition Zone Diameter mm (Dose mg/ml) E. Coli; for zone of inhibition at 1000 µg/mL: Dose 1.0 mg/ml; for zone of inhibition at 3000 µg/mL: Dose 3.0 mg/ml
Outline: as §1

Penicillium avellaneum = assay: agar plate paper-disc inhibition zone screening; type: cell-based; conditions: Hamigera avellanea, read-out: Inhibition Zone Diameter mm (Dose mg/ml) P. Avellaneum; for zone of inhibition at 3000 µg/mL: Dose 3.0 mg/ml; for zone of inhibition at 1000 µg/mL: Dose 1.0 mg/ml
Outline: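 Mycelia and spores from a six-day 28°C agar culture, suspended in saline with 0.05% Tween 80 at 20% transmittancy, were seeded into molten agar trays. Compounds at 3,000, 1,000, 500, 100 and 10 mcg/ml (solvent <10%) were applied on 12.7 mm paper discs. After at least 20-24 h incubation, inhibition zone diameter was measured in mm.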

[2] = tested on: lymphocytic leukemia P388; assay: in vivo lymphocytic leukemia P388 test; parameters: species or system mice; conditions: Mus musculus, P388, ip, 720 h, two single doses four days apart, read-out: T/C × 100 (Percent); for response vs control in vivo at 3.12 mg/kg: P388, Dose 3.12 mg/kg intraperitoneally; for response vs control in vivo at 12.5 mg/kg: P388, Dose 12.5 mg/kg intraperitoneally; for response vs control in vivo at 25 mg/kg: P388, Dose 25 mg/kg intraperitoneally; for response vs control in vivo at 50 mg/kg: P388, Dose 50 mg/kg intraperitoneally
Outline: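 Efficacy was judged from the treated/control survival-time ratio over 30 days (T/C×100 >125% as criterion). Mice (CD2F, 6–7/group) received i.p. P388 ascites cells, then compound i.p. at varied doses twice, four days apart.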

[3] = HCT-8 human colon adenocarcinoma cells, 60-65 hrs incubation with compound, Coulter counter cell count as percentage of controls, read-out: ID50 (the source's name)
[4] = Homo sapiens, HCT-8 cells, 60-65 hrs with compound, molar quantity of drug required to kill 50% of the tumor cells, read-out: ID50 Molar

O=C1c2cccc(O)c2-c2nn(CCNCCO)c3ccc(NCCNCCO)c1c23
IC50 [1, 3]: 1100 nM

CNCCNc1ccc2c3c(nn2CCNCCO)-c2cccc(O)c2C(=O)c13
IC50 [1, 3]: 27 nM

O=C1c2c(O)cccc2-c2nn(CCNCCO)c3ccc(NCCNCCO)c1c23
IC50 [1, 3]: 61 nM

NCCn1nc2c3c(c(NCCCNCCO)ccc31)C(=O)c1c(O)ccc(O)c1-2
IC50 [1, 3]: 280 nM

NCCCNc1ccc2c3c(nn2CCN)-c2c(O)ccc(O)c2C(=O)c13
IC50 [1, 3]: 850 nM

CNCCNc1ccc2c3c(nn2CCNCCO)-c2c(O)ccc(O)c2C(=O)c13
IC50 [1, 3]: 400 nM

CCN(CC)CC(O)Cn1nc2c3c(c(NCCN)ccc31)C(=O)c1c(O)ccc(O)c1-2 (stereo not shown)
IC50 [1, 3]: 460 nM

CCN(CC)CC(O)Cn1nc2c3c(c(NCCNCCO)ccc31)C(=O)c1c(O)ccc(O)c1-2 (stereo not shown)
IC50 [1, 3]: 690 nM

CCN(CC)CCn1nc2c3c(c(NCCNC)ccc31)C(=O)c1c(O)ccc(O)c1-2
IC50 [1, 3]: 120 nM

CN1CCN(c2ccc3c4c(nn3CCNCCO)-c3c(O)ccc(O)c3C(=O)c24)CC1
IC50 [1, 3]: 540 nM

CN(C)CCn1nc2c3c(c(NCCNCCO)ccc31)C(=O)c1c(O)ccc(O)c1-2
IC50 [1, 3]: 180 nM

NCCNc1ccc2c3c(nn2CCN)-c2c(O)ccc(O)c2C(=O)c13 [7,10-(OH)2; (CH2)2NH2·2HCl; NH(CH2)2NH2]
IC50 [1, 3]: 910 nM

CN(C)CCn1nc2c3c(c(NCCN)ccc31)C(=O)c1c(O)ccc(O)c1-2 [7,10-(OH)2; (CH2)2NMe2·2HCl; NH(CH2)2NH2]
IC50 [1, 3]: 140 nM

CN(C)CCn1nc2c3c(c(NCCCN)ccc31)C(=O)c1c(O)ccc(O)c1-2 [7,10-(OH)2; (CH2)2NMe2·2HCl; NH(CH2)3NH2]
IC50 [1, 3]: 1100 nM

CN(C)CCNc1ccc2c3c(nn2CCO)-c2c(O)ccc(O)c2C(=O)c13 [7,10-(OH)2; (CH2)2OH·HCl; NH(CH2)2NMe2]
IC50 [1, 3]: 170 nM

CN(C)CCCn1nc2c3c(c(NCCCN)ccc31)C(=O)c1c(O)ccc(O)c1-2 [7,10-(OH)2; (CH2)3NMe2·2HCl; NH(CH2)3NH2]
IC50 [1, 3]: 350 nM

CCN(CC)CCNc1ccc2c3c(nn2CCN(CC)CC)-c2ccccc2C(=O)c13 [Example 1]
zone of inhibition at 500 µg/mL (Aerobacter aerogenes): 19 mm | zone of inhibition at 500 µg/mL (Streptococcus faecalis): 14 mm | zone of inhibition at 100 µg/mL (Bacillus subtilis): 15 mm | zone of inhibition at 1000 µg/mL (Escherichia coli): 15 mm | zone of inhibition at 3000 µg/mL (Penicillium avellaneum): 19 mm | IC50 [1, 4]: 140 nM

CCN(CC)CCn1nc2c3c(c(NCCN)ccc31)C(=O)c1ccccc1-2 [Example 3, 5-[(2-Aminoethyl)amino]-2-[2-(diethylamino)ethyl]anthra[1,9-cd]pyrazol-6(2H)-one]
zone of inhibition at 500 µg/mL (Aerobacter aerogenes): 14 mm | zone of inhibition at 500 µg/mL (Streptococcus faecalis): 17 mm | zone of inhibition at 100 µg/mL (Bacillus subtilis): 15 mm | zone of inhibition at 1000 µg/mL (Escherichia coli): 14 mm | zone of inhibition at 3000 µg/mL (Penicillium avellaneum): 16 mm | IC50 [1, 4]: 52 nM

CCN(CC)CCCNc1ccc2c3c(nn2CCN(CC)CC)-c2ccccc2C(=O)c13 [Example 5, 2-[2-(Diethylamino)ethyl]-5-[[3-(diethylamino)propyl]amino]anthra[1,9-cd]pyrazol-6(2H)-one]
zone of inhibition at 100 µg/mL (Aerobacter aerogenes): 20 mm | zone of inhibition at 1000 µg/mL (Streptococcus faecalis): 14 mm | zone of inhibition at 1000 µg/mL (Bacillus subtilis): 25 mm | zone of inhibition at 3000 µg/mL (Escherichia coli): 15 mm | zone of inhibition at 3000 µg/mL (Penicillium avellaneum): 15 mm | IC50 [1, 4]: 180 nM

CCN(CC)CCCCCCCNc1ccc2c3c(nn2CCN(CC)CC)-c2ccccc2C(=O)c13 [Example 6]
zone of inhibition at 3000 µg/mL (Aerobacter aerogenes; Dose 3.0 mg/ml): 0 mm | zone of inhibition at 3000 µg/mL (Streptococcus faecalis): 14 mm | zone of inhibition at 500 µg/mL (Bacillus subtilis; Dose 0.5 mg/ml): 17 mm | zone of inhibition at 1000 µg/mL (Escherichia coli): 14 mm | zone of inhibition at 1000 µg/mL (Penicillium avellaneum): 14 mm | IC50 [1, 4]: 2200 nM

CCN(CC)CCCCNc1ccc2c3c(nn2CCN(CC)CC)-c2ccccc2C(=O)c13 [Example 7]
zone of inhibition at 100 µg/mL (Aerobacter aerogenes): 16 mm | zone of inhibition at 1000 µg/mL (Streptococcus faecalis): 14 mm | zone of inhibition at 1000 µg/mL (Bacillus subtilis): 17 mm | zone of inhibition at 3000 µg/mL (Escherichia coli): 15 mm | zone of inhibition at 3000 µg/mL (Penicillium avellaneum): 14 mm | IC50 [1, 4]: 220 nM

CCN(CC)CCn1nc2c3c(c(NCCN4CCNCC4)ccc31)C(=O)c1ccccc1-2 [Example 9, 2-(2-(Diethylamino)ethyl]-5-[[2-(1-piperazinyl)ethyl]amino]anthra[1,9-cd]pyrazol-6(2H)-one]
zone of inhibition at 100 µg/mL (Aerobacter aerogenes): 19 mm | zone of inhibition at 3000 µg/mL (Streptococcus faecalis): 14 mm | zone of inhibition at 1000 µg/mL (Bacillus subtilis): 24 mm | zone of inhibition at 3000 µg/mL (Escherichia coli): 0 mm | zone of inhibition at 1000 µg/mL (Penicillium avellaneum): 0 mm | IC50 [1, 4]: 380 nM

Cn1nc2c3c(c(NCCNCCO)ccc31)C(=O)c1c(O)ccc(O)c1-2 [Example 41, 7,10-Dihydroxy-5-[[2-[(2-hydroxyethyl)amino]ethyl]amino]-2-methylanthra[1,9-cd]pyrazol-6(2H)-one]
response vs control in vivo at 3.12 mg/kg [2]: 138% | response vs control in vivo at 12.5 mg/kg [2]: 140% | response vs control in vivo at 25 mg/kg [2]: 150% | response vs control in vivo at 50 mg/kg [2]: 162% | response vs control in vivo at 100 mg/kg ([2]; P388, Dose 100 mg/kg intraperitoneally): 174% | IC50 [1, 4]: 790 nM

NCCn1nc2c3c(c(NCCNCCO)ccc31)C(=O)c1c(O)ccc(O)c1-2 [Example 71, 2-(2-Aminoethyl)-7,10-dihydroxy-5-[[2-[(2-hydroxyethyl)amino]ethyl]amino]anthra[1,9-cd]pyrazol-6(2H)-one]
response vs control in vivo at 1.56 mg/kg ([2]; P388, Dose 1.56 mg/kg intraperitoneally): 153% | response vs control in vivo at 3.12 mg/kg [2]: 160% | response vs control in vivo at 6.25 mg/kg ([2]; P388, Dose 6.25 mg/kg intraperitoneally): 163% | response vs control in vivo at 12.5 mg/kg [2]: 182% | response vs control in vivo at 25 mg/kg [2]: 257% | IC50 [1, 3]: 1700 nM

CN(C)CCNCCNc1ccc2c3c(nn2CCN)-c2c(O)ccc(O)c2C(=O)c13 [Example 74, 2-[2-Aminoethyl)-5-[[2-[[2-(dimethylamino)ethyl]amino]ethyl]amino]-7,10-dihydroxyanthra[1,9-cd]pyrazol-6(2H)-one]
zone of inhibition at 3000 µg/mL (Streptococcus faecalis): 0 mm | zone of inhibition at 3000 µg/mL (Bacillus subtilis): 16 mm | zone of inhibition at 3000 µg/mL (Penicillium avellaneum): 0 mm | response vs control in vivo at 12.5 mg/kg [2]: 186% | response vs control in vivo at 25 mg/kg [2]: 192% | response vs control in vivo at 50 mg/kg [2]: 220% | IC50 [1, 3]: 1200 nM

NCCCn1nc2c3c(c(NCCNCCO)ccc31)C(=O)c1c(O)ccc(O)c1-2 [Example 90, 2-(3-Aminopropyl)-7,10-dihydroxy-5-[[2-[(2-hydroxyethyl)amino]ethyl]amino]anthra[1,9-cd]pyrazol-6(2H)-one]
zone of inhibition at 3000 µg/mL (Streptococcus faecalis): 0 mm | zone of inhibition at 3000 µg/mL (Bacillus subtilis): 16 mm | zone of inhibition at 3000 µg/mL (Penicillium avellaneum): 0 mm | response vs control in vivo at 25 mg/kg [2]: 285% | response vs control in vivo at 50 mg/kg [2]: 285% | IC50 [1, 3]: 770 nM

CNCCn1nc2c3c(c(NCCNCCO)ccc31)C(=O)c1c(O)ccc(O)c1-2 [Example 93, 7,10-Dihydroxy-5-[[2-[(2-hydroxyethyl)amino]ethyl]amino]-2-[2-(methylamino)ethyl]anthra[1,9-cd]pyrazol-6(2H)-one]
response vs control in vivo at 12.5 mg/kg [2]: 147% | IC50 [1, 3]: 230 nM
